Assay results from ChEMBL document CHEMBL4765473, “PF-07059013: A Noncovalent Modulator of Hemoglobin for Treatment of Sickle Cell Disease” (J Med Chem, 2021).
≈ marks a conversion by molar mass, not a printed value.

System: not listed separately
Test: Distribution coefficient, log D of the compound by shake flask method
Assay type: physicochemical
Conditions: octanol/water

| SMILES | logD |
| --- | --- |
| C[C@H](Oc1cc2cc(C(N)=O)cc(F)c2nc1N)c1ncc(F)cc1-n1cccn1 | 2.1 |
| C[C@H](Oc1cc2ccccc2nc1N)c1cc(F)ccc1-n1cccn1 | 4 |
| C[C@H](Oc1cc2cc(C(N)=O)ccc2nc1N)c1cc2[nH]ncc2cc1-n1cccn1 | 2.7 |
| C[C@H](Oc1cc2cc(F)ccc2nc1N)c1cc(F)c(F)cc1-n1cccn1 | 4.1 |
| C[C@H](Oc1cc2cc(C(N)=O)ccc2nc1N)c1cc(F)ccc1-n1cccn1 | 3 |

Target: Voltage-gated inwardly rectifying potassium channel KCNH2 (Homo sapiens, UniProt Q12809)
Test: Binding affinity to human ERG by dofetilide fluorescence polarization binding assay
Conditions: not given

Voltage-gated inwardly rectifying potassium channel KCNH2, sequence (Q12809 whole entry): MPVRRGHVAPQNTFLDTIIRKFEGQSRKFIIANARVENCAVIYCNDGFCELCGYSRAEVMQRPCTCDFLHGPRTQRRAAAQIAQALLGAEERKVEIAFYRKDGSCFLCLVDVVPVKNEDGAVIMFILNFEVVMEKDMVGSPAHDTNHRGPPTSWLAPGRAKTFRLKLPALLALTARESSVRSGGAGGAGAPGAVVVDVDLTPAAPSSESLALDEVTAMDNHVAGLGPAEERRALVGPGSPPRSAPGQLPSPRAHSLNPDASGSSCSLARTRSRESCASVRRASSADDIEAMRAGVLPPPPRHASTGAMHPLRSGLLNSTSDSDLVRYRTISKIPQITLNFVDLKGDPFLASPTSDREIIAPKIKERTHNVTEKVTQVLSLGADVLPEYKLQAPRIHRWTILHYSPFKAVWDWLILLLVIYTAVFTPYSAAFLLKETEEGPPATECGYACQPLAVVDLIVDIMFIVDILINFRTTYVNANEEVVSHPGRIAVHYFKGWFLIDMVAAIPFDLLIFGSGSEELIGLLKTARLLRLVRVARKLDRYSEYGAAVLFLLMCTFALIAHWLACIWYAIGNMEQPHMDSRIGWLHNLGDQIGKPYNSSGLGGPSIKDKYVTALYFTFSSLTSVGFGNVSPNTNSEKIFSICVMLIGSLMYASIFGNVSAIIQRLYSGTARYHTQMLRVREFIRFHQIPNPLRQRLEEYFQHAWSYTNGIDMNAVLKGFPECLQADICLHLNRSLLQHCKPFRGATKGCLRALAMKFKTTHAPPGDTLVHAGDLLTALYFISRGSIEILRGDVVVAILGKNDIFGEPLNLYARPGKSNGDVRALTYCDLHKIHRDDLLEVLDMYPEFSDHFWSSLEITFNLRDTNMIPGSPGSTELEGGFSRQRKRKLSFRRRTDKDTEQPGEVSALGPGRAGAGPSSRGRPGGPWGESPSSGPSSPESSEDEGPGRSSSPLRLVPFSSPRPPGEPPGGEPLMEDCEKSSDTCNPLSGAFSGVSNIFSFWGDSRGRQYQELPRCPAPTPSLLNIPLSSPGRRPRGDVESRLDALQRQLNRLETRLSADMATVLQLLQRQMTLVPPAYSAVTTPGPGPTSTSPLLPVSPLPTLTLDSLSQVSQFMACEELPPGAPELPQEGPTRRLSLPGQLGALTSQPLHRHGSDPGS

| SMILES | Ki [µM] |
| --- | --- |
| C[C@H](Oc1cc2cc(C(N)=O)cc(F)c2nc1N)c1ncc(F)cc1-n1cccn1 | > 40 |
| C[C@H](Oc1cc2cc(C(N)=O)ccc2nc1N)c1cc2[nH]ncc2cc1-n1cccn1 | 13 |
| C[C@H](Oc1cc2cc(F)ccc2nc1N)c1cc(F)c(F)cc1-n1cccn1 | 4.4 |
| C[C@H](Oc1cc2cc(C(N)=O)ccc2nc1N)c1cc(F)ccc1-n1cccn1 | 24 |

System: not listed separately
Test: Kinetic solubility of the compound
Assay type: physicochemical
Conditions: read-out: Kinetic_solubility

| SMILES | solubility kinetic [µg/mL] |
| --- | --- |
| C[C@H](Oc1cc2cc(C(N)=O)cc(F)c2nc1N)c1ncc(F)cc1-n1cccn1 | 0.5 (≈ 1.22 µM) |

System: not listed separately
Test: Modulation of HbS (unknown origin) assessed as stabilization of the oxy-state of hemoglobin by measuring conversion from oxyHb (R) to deoxyHb (T) pre-incubated for 1 hr and measured after 120 mins by oxygen dissociation assay
Set-up: species or system Homo sapiens
Conditions: not given

| SMILES | IC50 [µM] |
| --- | --- |
| C[C@H](Oc1cc2cc(C(N)=O)cc(F)c2nc1N)c1ncc(F)cc1-n1cccn1 | 3.9 |
| C[C@H](Oc1cc2ccccc2nc1N)c1cc(F)ccc1-n1cccn1 | 17 |
| C[C@H](Oc1cc2cc(C(N)=O)ccc2nc1N)c1cc2[nH]ncc2cc1-n1cccn1 | 5.5 |
| C[C@H](Oc1cc2cc(F)ccc2nc1N)c1cc(F)c(F)cc1-n1cccn1 | 5.7 |
| C[C@H](Oc1cc2cc(C(N)=O)ccc2nc1N)c1cc(F)ccc1-n1cccn1 | 11 |

System: not listed separately
Test: Intrinsic clearance in human hepatocytes assessed per million cells
Assay type: ADME, cell-based, Hepatocyte
Conditions: read-out: CLH

| SMILES | hepatocyte CLint [µL/min/1e6 cells] |
| --- | --- |
| C[C@H](Oc1cc2cc(C(N)=O)cc(F)c2nc1N)c1ncc(F)cc1-n1cccn1 | 4 |
| C[C@H](Oc1cc2cc(C(N)=O)ccc2nc1N)c1cc2[nH]ncc2cc1-n1cccn1 | < 3 |
| C[C@H](Oc1cc2cc(F)ccc2nc1N)c1cc(F)c(F)cc1-n1cccn1 | 57 |
| C[C@H](Oc1cc2cc(C(N)=O)ccc2nc1N)c1cc(F)ccc1-n1cccn1 | 13 |

Target: not listed separately
Test: Binding affinity to purified human cross-linked HbS by SPR analysis
Conditions: not given

| SMILES | Kd [µM] |
| --- | --- |
| C[C@H](Oc1cc2cc(C(N)=O)cc(F)c2nc1N)c1ncc(F)cc1-n1cccn1 | 0.068 |
| C[C@H](Oc1cc2ccccc2nc1N)c1cc(F)ccc1-n1cccn1 | 1.5 |
| C[C@H](Oc1cc2cc(C(N)=O)ccc2nc1N)c1cc2[nH]ncc2cc1-n1cccn1 | 0.036 |
| C[C@H](Oc1cc2cc(F)ccc2nc1N)c1cc(F)c(F)cc1-n1cccn1 | 0.115 |
| C[C@H](Oc1cc2cc(C(N)=O)ccc2nc1N)c1cc(F)ccc1-n1cccn1 | 0.402 |

System: not listed separately
Test: Thermodynamic solubility of the compound
Assay type: physicochemical
Conditions: read-out: Therm_solubility

| SMILES | solubility thermodynamic [µg/mL] |
| --- | --- |
| C[C@H](Oc1cc2cc(C(N)=O)cc(F)c2nc1N)c1ncc(F)cc1-n1cccn1 | 0.6 (≈ 1.46 µM) |

System: not listed separately
Test: Apparent permeability in MDCK cells
Assay type: ADME, cell-based, Canis lupus familiaris
Conditions: dog

| SMILES | Papp [×10⁻⁶ cm/s] |
| --- | --- |
| C[C@H](Oc1cc2cc(C(N)=O)ccc2nc1N)c1cc2[nH]ncc2cc1-n1cccn1 | 1.4 |
